Experimental data from PubChem BioAssay AID1259346.
Calls of active or inactive are those of the source.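 Rule for the calls: active = IC50 below 1 nM; inactive = the rest.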

System: HCT116 TERT promoter luciferase reporter, 16 h
Assay: TERT promoter activity modulators, dose response, HCT116 cells, human (AID 1259346)

For `Cc1nc2cc(-c3cccc(Br)c3)nn2c(C)c1CCC(=O)O`, the IC50 was 346 nM (inactive).
`COC(=O)CCc1c(C)nc2cc(-c3ccc(OC)cc3)nn2c1C` gave an IC50 of less than 1 nM.
In the case of `Cc1nc2cc(-c3ccc(Br)cc3)nn2c(C)c1CCC(=O)O`, the IC50 is reported as less than 1 nM.
`Cc1nc2cc(-c3ccccc3)nn2c(C)c1CCC(=O)O` was tested, and the IC50 was 7 nM (inactive).
With `Cc1nc2cc(-c3ccc(C#CCO)cc3)nn2c(C)c1CCC(=O)O` the IC50 was 3600 nM (inactive).
